# According to patent publication US9822069B2, “Urea derivative or pharmacologically acceptable salt thereof” (KYORIN PHARMACEUTICAL CO. LTD., priority 2013, dated 2017):
# Target: T1, human FPRL1 (Homo sapiens, UniProt P25090)
# T1 construct: expressed in transfected cells; host or cells: HEK293 (JCRB9068, NIBIO), transient transfection with pCMV-script vectors using Lipofectamine 2000
# T1 sequence (P25090 1-351): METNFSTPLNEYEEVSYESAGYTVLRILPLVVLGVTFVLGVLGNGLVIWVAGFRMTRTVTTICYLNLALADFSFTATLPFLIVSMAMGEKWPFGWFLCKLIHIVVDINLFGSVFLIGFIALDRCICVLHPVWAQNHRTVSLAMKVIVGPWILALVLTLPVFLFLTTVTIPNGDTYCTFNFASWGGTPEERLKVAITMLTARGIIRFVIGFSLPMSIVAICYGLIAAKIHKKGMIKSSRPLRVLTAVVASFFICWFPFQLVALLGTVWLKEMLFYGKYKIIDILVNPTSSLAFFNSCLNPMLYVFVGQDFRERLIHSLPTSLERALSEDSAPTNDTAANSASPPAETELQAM
# Test: Measurement test of agonist activity on human FPRL1 (test of calcium mobilization in cell, HEK293 with human FPRL1 and Gα15 expression vectors)
# Type: cell-based
# Conditions: calcium mobilization in HEK293 cells with human FPRL1 and Gα15 expression vectors
# Excerpt: Measurement Test of Agonist Activity on Human FPRL1
# (1-1) Construction of Human FPRL1 Expression Vector
# Human FPRL (SEQ ID NO: 3) was amplified in a PCR reaction from cDNA derived from a monocytic leukemia cell line THP-1 (TIB-202, ATCC) as a template using a forward primer shown in SEQ ID NO: 1, a reverse primer shown in SEQ ID NO: 2, and KOD-plus-ver. 2 (KOD-211, TOYOBO CO., LTD.). The amplified PCR product and pCMV-script vector (212220, STRATAGENE) were digested with Hind III (1060A, Takara Bio Inc.) and XhoI (1094A, Takara Bio Inc.), and the resultant digest was ligated with Ligation high ver. 2 (LGK-201, TOYOBO CO., LTD.). The ligation product was transformed into DH5α (DNA-901, TOYOBO CO., LTD.), cultured on a 100 μg/mL kanamycin-containing LB medium, and purified with HiSpeed Plasmid Maxi Kit (12662, QIAGEN).
# (1-2) Construction of Human Gα15 Expression Vector
# Human Gα15 (SEQ ID NO: 6) was amplified in a PCR reaction from cDNA derived from a myeloid leukemia cell line HL-60 (CCL-240, ATCC) as a template using a forward primer shown in SEQ ID NO: 4, a reverse primer shown in SEQ ID NO: 5, and KOD-plus-ver. 2. The amplified PCR product and pCMV-script vector were digested with Hind III and XhoI, and the resultant digest was ligated with Ligation high ver. 2. The ligation product was transformed into DH5α, cultured on a 100 μg/mL kanamycin-containing LB medium, and purified with HiSpeed Plasmid Maxi Kit.
# (2-1) Method for Culturing and Subculturing HEK293
# HEK293 (JCRB9068, NIBIO) was cultured in an incubator at 5% CO2 and 37° C. using DMEM (11885-092, GIBCO) containing 10% FBS and 1× Penicillin-Streptomycin (15140-122, GIBCO). Subculture was carried out as followings: The cells that reached 80 to 90% confluency were washed with PBS(−), separated using 0.25% Trypsin-EDTA (25200-072, GIBCO), centrifuged, re-suspended in a fresh medium, and then seeded in Collagen Type 1 Coated dish (4020-010, IWAKI) at a split ratio of 1:8 (cultured for 3 days).
# (2-2) Introduction of Human FPRL1 and Gα15 Expression Vectors
# HEK293 that reached 80 to 90% confluency was washed with PBS(−), separated using 0.25% Trypsin-EDTA, centrifuged, and re-suspended in a fresh medium excluding 1× Penicillin-Streptomycin. The cells were inoculated in a Collagen Type 1 coated 6-well plate (4810-010, IWAKI) to 5×10^5 cells/2.5 mL/well and cultured overnight. On the next day, human FPRL1 and Gα15 expression vectors were introduced using Lipofectamine 2000 transfection reagent (11668-019, Life technologies). First, the human FPRL1 and Gα15 expression vectors were diluted with Opti-MEM I Reduced Serum Medium (31985-070, GIBCO) to 2 μg/250 μL/well and Lipofectamine 2000 transfection reagent was diluted with Opti-MEM I Reduced Serum Medium to be 4 μL/250 μL/well. The vectors and reagent were softly diffused, and incubated at room temperature for 5 minutes. The vector solution was mixed with Lipofectamine 2000 transfection reagent in equal amounts. In order to form a composite of the vectors and Lipofectamine 2000 transfection reagent, the mixture was incubated at room temperature for 20 minutes, and added at 500 μL/well to the medium of inoculated cells. The treated cells were cultured for 24 hours, inoculated in Poly-D-Lysine coated 96-well plate (356640, BD Biosciences) at a cell density of 7×10^4 cells/100 μL/well, and cultured for another 24 hours. The resultant cells were used in a measurement test of calcium mobilization in the cells.
# (3) Evaluation of Agonist Activity on Human FPRL1 (Test of Calcium Mobilization in Cell)
# An appropriate amount of each test compound was first weighed, and dissolved to 10^−2 M by addition of dimethyl sulfoxide (DMSO). […]
row,Structure (SMILES),EC50
1,"CNc1cc(F)c([C@@H]2CNC(=O)[C@H]2NC(=O)Nc2ccc(F)cc2)c(F)c1 (single isomer, unassigned) [EXAMPLE 28-5, (−)-1-{(3S*,4R*)-4-[2,6-Difluoro-4-(methylamino)phenyl]-2-oxopyrrolidin-3-yl}-3-(4-fluorophenyl) urea]",1.42 nM
2,"COc1ccc([C@@H]2CN(C(C)C(=O)O)C(=O)[C@H]2NC(=O)Nc2ccc(F)cc2)cc1 (single isomer, unassigned; isomer a) [Example 18-1, (−)-2-{(3S*,4R*)-3-[3-(4-Fluorophenyl)ureido]-4-(4-methoxyphenyl)-2-oxopyrrolidin-1-yl}propionic acid (isomer A)]",2.36 nM
3,"CNC(=O)CN1C[C@@H](c2ccc(OC)cc2)[C@H](NC(=O)Nc2ccc(F)cc2)C1=O (relative stereo) [Example 17-1, (−)-2-{(3S*,4R*)-3-[3-(4-Fluorophenyl)ureido]-4-(4-methoxyphenyl)-2-oxopyrrolidin-1-yl}-N-methylacetamide]",0.11 nM
4,"COc1ccc([C@@H]2[C@H](C)NC(=O)[C@H]2NC(=O)Nc2ccc(F)cc2)cc1 (relative stereo) [Example 1-40, (−)-1-(4-fluorophenyl)-3-[(3S*,4R*,5S*)-4-(4-methoxyphenyl)-5-methyl-2-oxopyrrolidin-3-yl]urea]",1.44 nM
5,"COc1c(F)cc([C@@H]2CNC(=O)[C@H]2NC(=O)Nc2ccc(F)cc2)cc1F (single isomer, unassigned) [EXAMPLE 1-14, (−)-1-[(3S*,4R*)-4-(3,5-difluoro-4-methoxyphenyl)-2-oxopyrrolidin-3-yl]-3-(4-fluorophenyl)urea]",4.12 nM
6,"O=C(Nc1ccc(F)cc1)N[C@@H]1C(=O)N(CC2CC2)C[C@H]1c1cc2c(cc1F)OCC2 (single isomer, unassigned) [EXAMPLE 24-22, (−)-1-[(3S*,4R*)-1-(cyclopropylmethyl)-4-(6-fluoro-2,3-dihydrobenzofuran-5-yl)-2-oxopyrrolidin-3-yl]-3-(4-fluorophenyl)urea]",1.32 nM
7,"O=C(Nc1ccc(F)cc1)N[C@@H]1C(=O)NC[C@H]1c1cc2ccoc2cc1F (relative stereo) [Example 1-77, (−)-1-[(3S*,4R*)-4-(6-fluorobenzofuran-5-yl)-2-oxopyrrolidin-3-yl]-3-(4-fluorophenyl)urea]",5.2 nM
8,"COc1cc(F)c([C@@H]2CN(C)C(=O)[C@H]2NC(=O)Nc2ccc(Cl)nc2)c(F)c1 (relative stereo) [Example 24-4, (−)-1-(6-chloropyridin-3-yl)-3-[(3S*,4R*)-4-(2,6-difluoro-4-methoxyphenyl)-1-methyl-2-oxopyrrolidin-3-yl]urea]",0.81 nM
9,"CO/N=C1\NC[C@@H](c2c(F)cc(OC)cc2F)[C@@H]1NC(=O)Nc1ccc(C#N)cc1 (single isomer, unassigned) [EXAMPLE 32-9, (−)-1-(4-cyanphenyl)-3-[(3S*,4R*,Z)-4-(2,6-difluoro-4-methoxyphenyl)-2-(methoxyimino)pyrrolidin-3-yl]urea]",0.3 nM
10,"COc1ccc(C2CNC(=O)C2NC(=O)Nc2ccc(Cl)cc2)cc1 (single isomer, unassigned; (-)) [Example 12-11, (−)-1-(4-chlorophenyl)-3-[4-(4-methoxyphenyl)-2-oxopyrrolidin-3-yl]urea]",4.57 nM
11,"COc1cc(F)c([C@@H]2CNC(=O)[C@H]2NC(=O)Nc2ccc(F)c(F)c2)c(F)c1 (relative stereo) [Example 7-9, (−)-1-[(3S*,4R*)-4-(2,6-difluoro-4-methoxyphenyl)-2-oxopyrrolidin-3-yl]-3-(3,4-difluorophenyl)urea]",0.16 nM
12,"COc1cc(F)c([C@@H]2CN(CC(=O)O)C(=O)[C@H]2NC(=O)Nc2ccc(F)cc2)c(F)c1 (relative stereo) [Example 16-2, (−)-2-{(3S*,4R*)-4-(2,6-difluoro-4-methoxyphenyl)-3-[3-(4-fluorophenyl)ureido]-2-oxopyrrolidin-1-yl}acetic acid]",0.49 nM
13,"O=C(Nc1ccc(F)cc1)N[C@@H]1C(=O)N(CCO)C[C@H]1c1cc2c(cc1F)OCC2 (single isomer, unassigned) [EXAMPLE 24-19, (−)-1-[(3S*,4R*)-4-(6-fluoro-2,3-dihydrobenzofuran-5-yl)-1-(2-hydroxyethyl)-2-oxopyrrolidin-3-yl]-3-(4-fluorophenyl)urea]",0.33 nM
14,"COc1ccc([C@@H]2CN/C(=N\OCCO)[C@H]2NC(=O)Nc2ccc(F)cc2)cc1 (single isomer, unassigned) [EXAMPLE 32-4, (−)-1-(4-fluorophenyl)-3-{(3S*,4R*,Z)-2-[(2-hydroxyethoxy)imino]-4-(4-methoxyphenyl)pyrrolidin-3-yl}urea]",0.17 nM
15,"COc1cc(F)c([C@@H]2CN/C(=N\OCCO)[C@H]2NC(=O)Nc2ccc(Cl)nc2)c(F)c1 (single isomer, unassigned) [EXAMPLE 32-14, (−)-1-(6-chloropyridin-3-yl)-3-{(3S*,4R*,Z)-4-(2,6-difluoro-4-methoxyphenyl)-2-[(2-hydroxyethoxy)imino]pyrrolidin-3-yl}urea]",0.82 nM
16,"N#CCN1C[C@@H](c2cc3c(cc2F)OCC3)[C@H](NC(=O)Nc2ccc(F)cc2)C1=O (single isomer, unassigned) [EXAMPLE 24-23, (−)-1-[(3S*,4R*)-1-(cyanomethyl)-4-(6-fluoro-2,3-dihydrobenzofuran-5-yl)-2-oxopyrrolidin-3-yl]-3-(4-fluorophenyl)urea]",0.8 nM
17,"CCc1ccc(NC(=O)N[C@@H]2C(=O)NC[C@H]2c2c(F)cc(OC)cc2F)cc1 (relative stereo) [Example 7-10, (−)-1-[(3S*,4R*)-4-(2,6-difluoro-4-methoxyphenyl)-2-oxopyrrolidin-3-yl]-3-(4-ethylphenyl)urea]",2.31 nM
18,"COc1ccc(C2CN(CCO)C(=O)C2NC(=O)Nc2ccc(F)cc2)cc1 (stereo not drawn) [Example 12-15, (+)-1-(4-fluorophenyl)-3-[1-(2-hydroxyethyl)-4-(4-methoxyphenyl)-2-oxopyrrolidin-3-yl]urea]",0.43 nM
19,"COc1ccc([C@H]2[C@H](NC(=O)Nc3ccc(F)cc3)C(=O)N[C@@H]2C)cc1 (relative stereo) [Example 1-41, (−)-1-(4-fluorophenyl)-3-[(3S*,4R*,5R*)-4-(4-methoxyphenyl)-5-methyl-2-oxopyrrolidin-3-yl]urea]",0.73 nM
20,"COc1cc(F)c([C@@H]2CN(CCO)C(=O)[C@H]2NC(=O)Nc2ccc(C#N)cc2)c(F)c1 (relative stereo) [Example 24-8, (−)-1-(4-cyanophenyl)-3-[(3S*,4R*)-4-(2,6-difluoro-4-methoxyphenyl)-1-(2-hydroxyethyl)-2-oxopyrrolidin-3-yl]urea]",0.39 nM
